Source: patent US20250177408A1, “INHIBITOR OF INTERACTION BETWEEN YAP/TAZ AND TEAD, PREPARATION THEREOF, PHARMACEUTICAL COMPOSITION THEREOF AND USE THEREOF” (ETERN BIOPHARMA (SHANGHAI) CO., LTD., priority 2022, published 2025)
pIC50: −log10 of the molar value. Where a name gives a salt, the structure may show the parent alone.

Key:
[1] = target: YAP-TEAD protein interaction (His-TEAD1 (209-426) protein, Bio-YAP peptide (60-100)) (Homo sapiens, UniProt P28347); test: YAP-TEAD protein interaction HTRF experiment; type: binding; details: His-TEAD1 (209-426) 10 nM, Bio-YAP peptide 50 nM, read-out: Activity of each compound in blocking YAP-TEAD protein interaction (grades of IC50 values)
Method: In this example, the YAP-TEAD protein interaction HTRF experiment was used to detect the activity of each compound in blocking the YAP-TEAD protein interaction.
The experiment was carried out according to the following operation steps:
Step 1: His-TEAD1 (209-426) protein was added to a 384-well detection white plate to a final concentration of 10 nM, and buffer was used as the background signal well. The compounds to be tested were subjected to 3-fold dilution and a total of 10 concentration gradients were set up, and each diluted solution was mixed well. A certain volume of the compound to be tested was added to each well separately, 2 replicates were set for each concentration, and the final concentration of DMSO was controlled at 1%. Incubation was carried out at room temperature for 20 minutes. The amino acid sequence of TAED1 (209-426) used in this step is shown in SEQ ID NO: 1:
After mixing evenly, the mixture was incubated at room temperature for 10 minutes.
Step 3: Anti-His-Eu cryptate gold and streptavidin-XL665 were diluted according to the instructions and mixed in equal proportions. A certain volume of the detection reagent was added to the well, and the mixture was incubated at room temperature for 1 hour.
Step 4: The signal was detected using an Envision (Perkin Elmer) microplate reader at an excitation wavelength of 320 nm and emission wavelengths of 665 nm and 620 nm.
Step 5: The signal was calculated based on the ratio of Em665/Em620*10000.
(§1) The inhibition percentage (%) was calculated using the following formula: […]
The half-maximal inhibitory concentration (IC50) values were calculated using GraphPad Prism software.

MSTO-211H cells = test: Cell proliferation inhibition experiment (CellTiter-Glo); type: cell-based; details: Homo sapiens, 96 hours, read-out: Inhibitory activity of each compound on the proliferation of MSTO-211H cells (grades of IC50 values)
Method: In this example, the intracellular ATP was quantitatively determined by the CellTiter-Glo luminescence cell viability detection kit to detect the number of living cells in the culture.
Step 1: MSTO-211H (ATCC, CRL-2081TM) or NCI-H2052 (ATCC, CRL-5915TM) cells were inoculated in a 96-well plate at a density of 1500 cells per well with a volume of 100 μL per well, and the cells were incubated overnight in a 37° C., 5% carbon dioxide incubator. The culture medium used was RPMI1640 medium (GIBCO-A10491-01)+10% FBS (GIBCO-10099141C)+1% penicillin/streptomycin (Pen/Strep) (GIBCO-15070-063).
Step 2: The cells were treated with the compounds to be tested. The compounds to be tested were 3-fold diluted, and a total of 9 concentration gradients were set up; a certain volume of DMSO or the compounds to be tested was added to each well, respectively, and 2 replicates were set up for each concentration, and the final concentration of DMSO was controlled to be no higher than 0.5%. The cells were incubated for 96 hours in a 37° C., 5% carbon dioxide incubator.
Step 3: Cell viability was detected in the control group and treatment group using CellTiter-Glo Luminescent Cell Viability Assay kit (Promega, G7570). 50 μL of CellTiter-Glo was added to each well, mixed well, and incubated at room temperature for 10 minutes. The signal was read using En Vision® Multilabel Plate Reader (Perkin Elmer).
as §1
Using Graphpad Prism software, the IC50 values of the compounds inhibiting the CTG signal of cell proliferation activity was calculated.

YAP-TEAD protein interaction (His-TEAD1 (209-426) protein, Bio-YAP peptide (60-100)), sequence (P28347 209-426): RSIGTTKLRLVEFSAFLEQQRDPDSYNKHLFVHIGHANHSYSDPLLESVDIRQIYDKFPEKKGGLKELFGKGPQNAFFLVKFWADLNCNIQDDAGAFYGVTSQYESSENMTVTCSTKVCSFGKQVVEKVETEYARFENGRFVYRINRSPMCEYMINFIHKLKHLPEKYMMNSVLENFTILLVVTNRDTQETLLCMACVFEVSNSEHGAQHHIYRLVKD

| pIC50 [1] | SMILES | pIC50 (MSTO-211H cells) |
| --- | --- | --- |
| > 7.30 | Cn1cc2c(n1)COc1c-2cc(C(N)=O)c(-c2c(Cl)c(F)cc3c2C[C@@](CN[C@H]2CC[C@H](O)CC2)(c2ccccc2)O3)c1F (atropisomer, axis not shown) [Compound 81] | > 6.70 |
| > 7.30 | CO[C@H]1C[C@H](CNC[C@@]2(c3ccccc3)Cc3c(cc(F)c(Cl)c3-c3c(C(N)=O)cc4c(c3F)OCc3nn(C)cc3-4)O2)C1 (atropisomer, axis not shown) [Compound 84, (S)-7-((S)-5-Chloro-6-fluoro-2-(((((1r,3S)-3-methoxycyclobutyl)methyl)amino)methyl)-2-phenyl-2,3-dihydrobenzofuran-4-yl)-6-fluoro-2-methyl-2,4-dihydrochromeno[3,4-c]pyrazole-8-carboxamide formate] | 6.30 to 6.70 |
| > 7.30 | NC(=O)c1cc2c(c(F)c1-c1c(Cl)c(F)cc3c1C[C@](c1ccccc1)([C@@H]1CCCN1)O3)Oc1nc(CO)cnc1O2 (atropisomer, axis not shown) [Compound 101, (S)-8-((S)-5-Chloro-6-fluoro-2-phenyl-2-((S)-pyrrolidin-2-yl)-2,3-dihydrobenzofuran-4-yl)-9-fluoro-2-(hydroxymethyl)benzo[5,6] [1,4]dioxo [2,3-b]pyrazine-7-carboxamide] | > 6.70 |
| > 7.30 | NC(=O)c1cc2c(c(F)c1-c1c(Cl)c(F)cc3c1C[C@](c1ccccc1)([C@@H]1CCCN1)O3)Oc1ncc(CO)nc1O2 (atropisomer, axis not shown) [Compound 102, (S)-8-((S)-5-Chloro-6-fluoro-2-phenyl-2-((S)-pyrrolidin-2-yl)-2,3-dihydrobenzofuran-4-yl)-9-fluoro-3-(hydroxymethyl)benzo[5,6] [1,4]dioxo [2,3-b]pyrazine-7-carboxamide] | > 6.70 |
| > 7.30 | Cn1ncc2c(c1=O)Oc1c(cc(C(N)=O)c(-c3c(Cl)c(F)cc4c3C[C@](c3ccccc3)([C@@H]3CCCN3)O4)c1F)O2 (atropisomer, axis not shown) [Compound 105, (S)-8-((S)-5-Chloro-6-fluoro-2-phenyl-2-((S)-pyrrolidin-2-yl)-2,3-dihydrobenzofuran-4-yl)-9-fluoro-2-methyl-1-oxo-1,2-dihydrobenzo[5,6][1,4]dioxo[2,3-d]pyridazine-7-carboxamide] | > 6.70 |
| > 7.30 | NC(=O)c1cc2c(c(F)c1-c1c(Cl)c(F)cc3c1C[C@](c1ccccc1)([C@@H]1CCCN1)O3)Oc1c(cn[nH]c1=O)O2 (atropisomer, axis not shown) [Compound 107, (S)-8-((S)-5-Chloro-6-fluoro-2-phenyl-2-((S)-pyrrolidin-2-yl)-2,3-dihydrobenzofuran-4-yl)-9-fluoro-1-oxo-1,2-dihydrobenzo[5,6][1,4]dioxo [2,3-d]pyridazine-7-carboxamide] | > 6.70 |
| > 7.30 | NC(=O)c1cc2c(c(F)c1-c1c(Cl)c(F)cc3c1C[C@](c1ccccc1)([C@@H]1CCCN1)O3)Oc1cn[nH]c(=O)c1O2 (atropisomer, axis not shown) [Compound 108, (S)-8-((S)-5-Chloro-6-fluoro-2-phenyl-2-((S)-pyrrolidin-2-yl)-2,3-dihydrobenzofuran-4-yl)-9-fluoro-4-oxo-3,4-dihydrobenzo[5,6][1,4]dioxo [2,3-d]pyridazine-7-carboxamide] | 5.30 to 6.30 |
| > 7.30 | CCn1ncc2c(c1=O)Oc1c(cc(C(N)=O)c(-c3c(Cl)c(F)cc4c3C[C@](c3ccccc3)([C@@H]3CCCN3)O4)c1F)O2 (atropisomer, axis not shown) [Compound 109, (S)-8-((S)-5-Chloro-6-fluoro-2-phenyl-2-((S)-pyrrolidin-2-yl)-2,3-dihydrobenzofuran-4-yl)-2-ethyl-9-fluoro-1-oxo-1,2-dihydrobenzo[5,6][1,4]dioxo [2,3-d]pyridazine-7-carboxamide] | > 6.70 |
| > 7.30 | CCn1ncc2c(c1=O)Oc1cc(C(N)=O)c(-c3c(Cl)c(F)cc4c3C[C@](c3ccccc3)([C@@H]3CCCN3)O4)c(F)c1O2 (atropisomer, axis not shown) [Compound 110, (S)-8-((S)-5-Chloro-6-fluoro-2-phenyl-2-((S)-pyrrolidin-2-yl)-2,3-dihydrobenzofuran-4-yl)-3-ethyl-9-fluoro-4-oxo-3,4-dihydrobenzo[5,6][1,4]dioxo [2,3-d]pyridazine-7-carboxamide] | 6.30 to 6.70 |
| > 7.30 | NC(=O)c1cc2c(c(F)c1-c1c(Cl)c(F)cc3c1C[C@](c1ccccc1)([C@@H]1CCCN1)O3)Oc1c(N)ncnc1O2 (atropisomer, axis not shown) [Compound 114, (S)-4-Amino-7-((S)-5-chloro-6-fluoro-2-phenyl-2-((S)-pyrrolidin-2-yl)-2,3-dihydrobenzofuran-4-yl)-6-fluorobenzo[5,6][1,4]dioxo [2,3-d]pyrimidine-8-carboxamide] | 5.30 to 6.30 |
| > 7.30 | Cn1cc2c(n1)COc1c-2cc(C(N)=O)c(-c2c(Cl)c(F)cc3c2C[C@](c2ccccc2)([C@@H]2CCC(=O)N2)O3)c1F (atropisomer, axis not shown) [Compound 115, (S)-7-((S)-5-Chloro-6-fluoro-2-((S)-5-oxopyrrolidin-2-yl)-2-phenyl-2,3-dihydrobenzofuran-4-yl)-6-fluoro-2-methyl-2,4-dihydrochromeno[3,4-c]pyrazole-8-carboxamide] | 5.30 to 6.30 |
| > 7.30 | [2H]c1c([2H])c([2H])c([C@]2([C@@H]3CCCN3)Cc3c(cc(F)c(Cl)c3-c3c(C(N)=O)cc4c(c3F)OCc3nn(C)cc3-4)O2)c([2H])c1[2H] (atropisomer, axis not shown) [Compound 116, (S)-7-((S)-5-Chloro-6-fluoro-2-(phenyl-d5)-2-((S)-pyrrolidin-2-yl)-2,3-dihydrobenzofuran-4-yl)-6-fluoro-2-methyl-2,4-dihydrochromeno[3,4-c]pyrazole-8-carboxamide] | > 6.70 |
| > 7.30 | NC(=O)c1cc2c(c(F)c1-c1c(Cl)c(F)cc3c1C[C@](c1ccccc1)([C@@H]1CCCN1)O3)Oc1c(cnn(CCF)c1=O)O2 (atropisomer, axis not shown) [Compound 118, (S)-8-((S)-5-Chloro-6-fluoro-2-phenyl-2-((S)-pyrrolidin-2-yl)-2,3-dihydrobenzofuran-4-yl)-9-fluoro-2-(2-fluoroethyl)-1-oxo-1,2-dihydrobenzo[5,6][1,4]dioxo[2,3-d]pyridazine-7-carboxamide] | > 6.70 |
| > 7.30 | NC(=O)c1cc2c(c(F)c1-c1c(Cl)c(F)cc3c1C[C@](c1ccccc1)([C@@H]1CCCN1)O3)Oc1cnn(CCF)c(=O)c1O2 (atropisomer, axis not shown) [Compound 119, (S)-8-((S)-5-Chloro-6-fluoro-2-phenyl-2-((S)-pyrrolidin-2-yl)-2,3-dihydrobenzofuran-4-yl)-9-fluoro-3-(2-fluoroethyl)-4-oxo-3,4-dihydrobenzo[5,6][1,4]dioxo[2,3-d]pyridazine-7-carboxamide] | 6.30 to 6.70 |
| > 7.30 | NC(=O)c1cc2c(c(F)c1-c1c(Cl)c(F)cc3c1C[C@](c1ccccc1)([C@@H]1CCCN1)O3)Oc1c(cnn(CC(F)F)c1=O)O2 (atropisomer, axis not shown) [Compound 120, (S)-8-((S)-5-Chloro-6-fluoro-2-phenyl-2-((S)-pyrrolidin-2-yl)-2,3-dihydrobenzofuran-4-yl)-9-fluoro-2-(2,2-difluoroethyl)-1-oxo-1,2-dihydrobenzo[5,6][1,4]dioxo[2,3-d]pyridazine-7-carboxamide] | > 6.70 |
